According to ChEMBL document CHEMBL3588743, “Cell-based and virtual fragment screening for adrenergic α2C receptor agonists” (Bioorg Med Chem, 2015):

What was measured:
[1] = target: T1, Alpha-2C adrenergic receptor (Homo sapiens) (UniProt P18825); test: (§1) Displacement of [3H]-UK14304 from recombinant human alpha2c adrenergic receptor expressed in CHOK1 cell membranes after 30 mins by scintillation counting analysis; settings: CHO-K1
T1 sequence (whole entry): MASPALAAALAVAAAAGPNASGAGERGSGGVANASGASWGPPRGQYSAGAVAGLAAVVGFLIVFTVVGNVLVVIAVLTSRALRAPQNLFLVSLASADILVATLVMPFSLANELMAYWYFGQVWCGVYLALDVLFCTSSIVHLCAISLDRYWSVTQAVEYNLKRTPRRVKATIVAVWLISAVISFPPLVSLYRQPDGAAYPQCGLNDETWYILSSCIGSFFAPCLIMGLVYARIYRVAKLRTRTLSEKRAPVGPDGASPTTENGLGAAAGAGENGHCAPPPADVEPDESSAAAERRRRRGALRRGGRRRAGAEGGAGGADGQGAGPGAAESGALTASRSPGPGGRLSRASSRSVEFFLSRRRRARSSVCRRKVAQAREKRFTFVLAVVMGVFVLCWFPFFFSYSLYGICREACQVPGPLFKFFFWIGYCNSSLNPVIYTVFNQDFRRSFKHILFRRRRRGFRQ

[2] = target: T2, Alpha-2C adrenergic receptor (Homo sapiens, UniProt P18825); test: as §1; set-up: species or system CHO-K1
T2 sequence (P18825 whole entry): T1 sequence (whole entry)

[3] = target: T2, Alpha-2C adrenergic receptor; test: Agonist activity at recombinant human alpha2c adrenergic receptor expressed in CHOK1 cells co-expressing Gqi5 assessed as induction of cytoplasmic calcium mobilization measured for 40 secs by fluorometric analysis; format: functional, cell-based, CHO-K1
[4] = target: T1, Alpha-2C adrenergic receptor (Homo sapiens); test: Agonist activity at recombinant human alpha2c adrenergic receptor expressed in CHOK1 cells co-expressing Gqi5 assessed as induction of cytoplasmic calcium mobilization measured for 40 secs by fluorometric analysis relative to UK14304; format: functional, cell-based; settings: CHO-K1
[5] = target: Somatostatin receptor type 4 (Homo sapiens) (UniProt P31391); test: Agonist activity at recombinant human sst4 receptor expressed in CHOK1 cells co-expressing Galpha16 assessed as induction of cytoplasmic calcium mobilization at 250 uM measured for 40 secs by fluorometric analysis relative to L-803087; format: functional, cell-based; settings: CHO-K1
Chain of Somatostatin receptor type 4 (Homo sapiens) (P31391 whole entry): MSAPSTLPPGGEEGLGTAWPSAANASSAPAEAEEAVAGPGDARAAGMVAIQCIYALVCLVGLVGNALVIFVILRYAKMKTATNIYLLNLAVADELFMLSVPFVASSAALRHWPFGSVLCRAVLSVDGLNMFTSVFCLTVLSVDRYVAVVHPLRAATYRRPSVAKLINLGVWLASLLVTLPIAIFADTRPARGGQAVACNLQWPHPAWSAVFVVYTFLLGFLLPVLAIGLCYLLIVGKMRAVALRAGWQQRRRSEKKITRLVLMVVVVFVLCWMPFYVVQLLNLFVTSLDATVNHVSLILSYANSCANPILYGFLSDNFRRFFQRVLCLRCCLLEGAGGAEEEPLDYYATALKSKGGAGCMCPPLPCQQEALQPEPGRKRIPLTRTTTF

Emax [1] [%] | Ki [2] [µM] | EC50 [3] [µM] | Emax [4] [%] | Compound | Activity [5] [%]
– | 13.8 | – | – | COc1ccc(C2NCCCn3cccc32)cc1 (configuration not stated) | –
99 | 7.24 | > 501 | > 88 | CCNCC(=O)N1CCn2cccc2C1c1cccc(Cl)c1 (configuration not stated) | –
102 | 22.4 | 148 | 55 | Cc1ccccc1Cn1ccnc1CNC(C)C | –
92 | 0.646 | 3.16 | 49 | NCCSc1nc2ccccc2o1 | –
81 | 10.5 | > 501 | > 77 | COc1ccccc1OCC1CNCCO1 (configuration not stated) | –
81 | 15.5 | 631 | 93 | NCC(=O)Nc1ccccc1Oc1ccccc1 | –
104 | 8.32 | > 501 | > 51 | NCCCN(C(=O)c1ccccc1)c1ccccc1 | –
100 | 0.0724 | 0.174 | 60 | Cc1ccccc1NCc1cnc[nH]1 | –
98 | 1.07 | 3.47 | 56 | c1cncc(-c2ccccc2NCc2ccncc2)c1 | –
78 | 15.1 | 339 | 123 | OC(Cn1ccnc1)c1ccc(Cl)cc1Cl (configuration not stated) | –
97 | 1.17 | > 501 | > 105 | Brc1cccc(Cn2ccnc2)c1 | –

Second part, the compound before the results:

Compound | Emax [1] [%] | Ki [2] [µM] | EC50 [3] [µM] | Emax [4] [%] | Activity [5] [%]
Oc1cc2c(cc1O)C(c1ccccc1)CNCC2 (configuration not stated) [SKF-38393] | 92 | 0.0832 | 1.38 | 70 | –
N#Cc1cccc(-c2ccccc2CCN)c1 | 100 | 0.0117 | > 501 | > 75 | –
Cc1ccccc1NCc1ccncc1 | 92 | 0.537 | > 501 | > 66 | –
O=C(CCC1CCCC1)N1CCSC12CCNCC2 | 81 | 15.5 | > 501 | > 82 | –
CN1CCN(c2ccccc2N)CC1 | – | 0.24 | – | – | –
c1ccc(-c2nc(CNCc3cccnc3)c[nH]2)cc1 | 102 | 5.25 | 479 | 87 | –
CN1CCN(c2cccc(N)c2)CC1 | – | 0.562 | – | – | –
c1ccc2c(CC3=NCCN3)cccc2c1 [NAPHAZOLINE] | 102 | 0.00229 | 0.055 | 55 | –
CN1CCN(c2ccc(N)cc2)CC1 | 100 | 1.51 | > 501 | > 36 | < 10
